Assay [1] has as its target WT αHL (Staphylococcus aureus, UniProt P09616). Type of assay: biochemical, staphylococcal. Particulars: pH 7.
Assay [2] has as its target wild-type (WT) staphylococcal α-hemolysin (αHL) heptamer (Staphylococcus aureus, UniProt P09616). Type of assay: biochemical. Particulars: pH 7.
Assay [3] has as its target αHL pore (Staphylococcus aureus, UniProt P09616). The format is biochemical, staphylococcal.

wild-type (WT) staphylococcal α-hemolysin (αHL) heptamer, sequence (P09616 27-319 limits assumed): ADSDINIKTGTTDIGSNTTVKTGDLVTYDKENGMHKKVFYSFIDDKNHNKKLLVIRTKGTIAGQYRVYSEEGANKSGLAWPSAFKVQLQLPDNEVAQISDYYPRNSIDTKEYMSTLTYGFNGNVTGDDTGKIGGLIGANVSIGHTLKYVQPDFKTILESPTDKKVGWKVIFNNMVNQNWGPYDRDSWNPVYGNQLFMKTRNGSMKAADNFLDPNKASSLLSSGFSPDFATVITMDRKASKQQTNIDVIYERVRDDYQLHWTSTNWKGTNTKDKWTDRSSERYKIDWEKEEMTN
αHL pore, sequence (P09616 27-319 limits assumed): as above
WT αHL, sequence (P09616 27-319 limits assumed): as above

Consider γ-cyclodextrin [γCD], for which the “ionic current blocked by transient binding to an αHL pore” value in assay [1] is “around 60%”. The “residence time (toff) for γCD bound to the αHL pore” value in assay [2] came to 495 ± 51 ms. Further, the “residence time (toff)” value in assay [3] worked out at 421 ± 22 ms.

The values are drawn from patent US8691586B2 (priority 2006, dated 2014).
